According to ChEMBL document CHEMBL1201862, “PubChem BioAssay data set” (2004):
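Each compound was tested at five concentrations against cells in 96-well plates for 48 hours. Here, GI50 denotes the concentration required for 50% inhibition of growth.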 Active and inactive are the calls of the source. Cut-off read from the data, not from the text of the source: active = GI50 up to about 1.1 µM and inactive = higher.

What was measured:
Assay in all cases: DTP human tumour cell line panel, 48 h
786-0 = test system: 786-0
A498 = test system: A498
A549 = test system: A549
ACHN = test system: ACHN
CAKI-1 = test system: CAKI-1
CCRF-CEM = test system: CCRF-CEM
COLO 205 = test system: COLO 205
DLD-1 = test system: DLD-1
DMS-114 = test system: DMS-114
DMS-273 = test system: DMS-273
EKVX = test system: EKVX
HCC 2998 = test system: HCC 2998
HCT-116 = test system: HCT-116
HCT-15 = test system: HCT-15
HL-60 = test system: HL-60
HOP-62 = test system: HOP-62
HOP-92 = test system: HOP-92
HT-29 = test system: HT-29
IGROV-1 = test system: IGROV-1
K562 = test system: K562
KM-20L2 = test system: KM-20L2
KM12 = test system: KM12
LOX IMVI = test system: LOX IMVI
LXFL 529 = test system: LXFL 529
M14 = test system: M14
M19-MEL = test system: M19-MEL
MOLT-4 = test system: MOLT-4
Malme-3M = test system: Malme-3M
NCI-H226 = test system: NCI-H226
NCI-H23 = test system: NCI-H23
NCI-H460 = test system: NCI-H460
NCI-H522 = test system: NCI-H522
OVCAR-3 = test system: OVCAR-3
OVCAR-4 = test system: OVCAR-4
OVCAR-5 = test system: OVCAR-5
OVCAR-8 = test system: OVCAR-8
RPMI-8226 = test system: RPMI-8226
SF-295 = test system: SF-295
SF-539 = test system: SF-539
SK-MEL-28 = test system: SK-MEL-28
SK-MEL-2 = test system: SK-MEL-2
SK-MEL-5 = test system: SK-MEL-5
SK-OV-3 = test system: SK-OV-3
SN12C = test system: SN12C
SNB-19 = test system: SNB-19
SNB-75 = test system: SNB-75
SNB-78 = test system: SNB-78
SW-620 = test system: SW-620
TK-10 = test system: TK-10
U-251 = test system: U-251
UACC-257 = test system: UACC-257
UACC-62 = test system: UACC-62
UO-31 = test system: UO-31
XF498 = test system: XF498

COc1ccc(C2C(Cl)C(=O)N2NC(=O)c2ccc(N)cc2)cc1 (centres undefined) was tested, and the GI50 (786-0) was > 100 µM (inactive), the GI50 (A498) was > 100 µM (inactive) and the GI50 (A549) was > 100 µM (inactive). The GI50 (ACHN) was > 100 µM (inactive), the GI50 (CAKI-1) was > 100 µM (inactive) and the GI50 (CCRF-CEM) was 93.5 µM (inactive). The GI50 (COLO 205) was > 100 µM (inactive), the GI50 (DLD-1) was > 100 µM (inactive) and the GI50 (DMS-114) was > 100 µM (inactive). For the same molecule, the GI50 (DMS-273) was > 100 µM (inactive), the GI50 (EKVX) was > 100 µM (inactive) and the GI50 (HCC 2998) was > 100 µM (inactive). The GI50 (HCT-116) was > 100 µM (inactive), the GI50 (HCT-15) was > 100 µM and the GI50 (HL-60) was > 100 µM (inactive). For the same molecule, the GI50 (HOP-62) was > 100 µM (inactive), the GI50 (HOP-92) was > 100 µM (inactive) and the GI50 (HT-29) was > 100 µM (inactive). The GI50 (IGROV-1) was > 100 µM (inactive), the GI50 (K562) was > 100 µM (inactive) and the GI50 (KM-20L2) was > 100 µM (inactive). For the same molecule, the GI50 (KM12) was > 100 µM (inactive), the GI50 (LOX IMVI) was > 100 µM (inactive) and the GI50 (LXFL 529) was > 100 µM (inactive). For the same molecule, the GI50 (M14) was > 100 µM (inactive), the GI50 (M19-MEL) was > 100 µM (inactive) and the GI50 (MOLT-4) was > 100 µM (inactive). The GI50 (Malme-3M) was > 100 µM (inactive), the GI50 (NCI-H226) was > 100 µM (inactive) and the GI50 (NCI-H23) was > 100 µM (inactive). For the same molecule, the GI50 (NCI-H460) was > 100 µM (inactive), the GI50 (NCI-H522) was > 100 µM (inactive) and the GI50 (OVCAR-3) was > 100 µM (inactive). The GI50 (OVCAR-4) was > 100 µM (inactive), the GI50 (OVCAR-5) was > 100 µM (inactive) and the GI50 (OVCAR-8) was > 100 µM (inactive). The GI50 (RPMI-8226) was > 100 µM (inactive), the GI50 (SF-295) was > 100 µM (inactive) and the GI50 (SF-539) was > 100 µM (inactive). The GI50 (SK-MEL-28) was > 100 µM (inactive), the GI50 (SK-MEL-2) was > 100 µM (inactive) and the GI50 (SK-MEL-5) was > 100 µM (inactive). For the same molecule, the GI50 (SK-OV-3) was > 100 µM (inactive), the GI50 (SN12C) was > 100 µM (inactive) and the GI50 (SNB-19) was > 100 µM (inactive). The GI50 (SNB-75) was > 100 µM (inactive), the GI50 (SNB-78) was > 100 µM (inactive) and the GI50 (SW-620) was > 100 µM (inactive). For the same molecule, the GI50 (TK-10) was > 100 µM (inactive), the GI50 (U-251) was > 100 µM (inactive) and the GI50 (UACC-257) was > 100 µM (inactive). The GI50 (UACC-62) was > 100 µM (inactive), the GI50 (UO-31) was > 100 µM (inactive) and the GI50 (XF498) was > 100 µM (inactive).
